Data taken from the supplement of paper PMC4862054.

Columns and labels:
Conditions in all cases: incubation time: 72 h
BT-474 [1] = assay: normalised response (% of control), CellTiter-Glo; higher = more viable cells (100 = DMSO, 0 = benzethonium chloride kill control)
In short: (§1)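 CellTox Green fluorescence (485/520 nm) and, after 10 min at room temperature, CellTiter-Glo luminescence were read from breast cancer cell lines incubated 72 h in 384-well plates. Cells were seeded as 20 µl suspension onto compound at 5 concentrations in 10-fold steps over a 10,000-fold range chosen per compound. Each plate was normalised to 0.1 % DMSO (100) and a positive kill control (0). Values are normalised signals, one per concentration.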

BT-549 [2] = assay: as above
In short: as §1

CAL-120 [3] = assay: as above
In short: as §1

CAL-148 [4] = assay: as above
In short: as §1

CAL-51 [5] = assay: as above
In short: as §1

CAL-85-1 [6] = assay: as above
In short: as §1

DU-4475 [7] = assay: as above
In short: as §1

HCC1143 [8] = assay: as above
In short: as §1

HCC1599 [9] = assay: as above
In short: as §1

HCC1937 [10] = assay: as above
In short: as §1

HDQ-P1 [11] = assay: as above
In short: as §1

Hs578T [12] = assay: as above
In short: as §1

MCF-10A = assay: as above
In short: as §1

MDA-MB-231 [13] = assay: as above
In short: as §1

MDA-MB-436 [14] = assay: as above
In short: as §1

MDA-MB-453 [15] = assay: as above
In short: as §1

MDA-MB-468 [16] = assay: as above
In short: as §1

MFM-223 [17] = assay: as above
In short: as §1

SK-BR-3 [18] = assay: as above
In short: as §1

BT-474 [19] = assay: normalised viability (% of control), CellTiter-Blue; higher = more viable cells (100 = DMSO, 0 = benzethonium chloride kill control)
In short: (§2)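 Each value is normalised viability at a single listed concentration of the series. Breast cancer cell lines in 384-well plates were incubated 72 h with compound and read by CellTiter-Blue fluorescence at 560/590 nm, with vehicle set to 100 and a positive kill control to 0 on every plate.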

BT-549 [20] = assay: as above
In short: as §2

CAL-120 [21] = assay: as above
In short: as §2

CAL-148 [22] = assay: as above
In short: as §2

CAL-51 [23] = assay: as above
In short: as §2

CAL-85-1 [24] = assay: as above
In short: as §2

DU-4475 [25] = assay: as above
In short: as §2

HCC1143 [26] = assay: as above
In short: as §2

HCC1599 [27] = assay: as above
In short: as §2

HCC1937 [28] = assay: as above
In short: as §2

HDQ-P1 [29] = assay: as above
In short: as §2

Hs578T [30] = assay: as above
In short: as §2

MDA-MB-231 [31] = assay: as above
In short: as §2

MDA-MB-436 [32] = assay: as above
In short: as §2

MDA-MB-453 [33] = assay: as above
In short: as §2

MDA-MB-468 [34] = assay: as above
In short: as §2

MFM-223 [35] = assay: as above
In short: as §2

SK-BR-3 [36] = assay: as above
In short: as §2

| Structure (SMILES) | normalised response (BT-474 [1]) [%] | normalised response (BT-549 [2]) [%] | normalised response (CAL-120 [3]) [%] | normalised response (CAL-148 [4]) [%] | normalised response (CAL-51 [5]) [%] | normalised response (CAL-85-1 [6]) [%] | normalised response (DU-4475 [7]) [%] | normalised response (HCC1143 [8]) [%] | normalised response (HCC1599 [9]) [%] | normalised response (HCC1937 [10]) [%] | normalised response (HDQ-P1 [11]) [%] | normalised response (Hs578T [12]) [%] | normalised response (MCF-10A) [%] | normalised response (MDA-MB-231 [13]) [%] | normalised response (MDA-MB-436 [14]) [%] | normalised response (MDA-MB-453 [15]) [%] | normalised response (MDA-MB-468 [16]) [%] | normalised response (MFM-223 [17]) [%] | normalised response (SK-BR-3 [18]) [%] | normalised viability (BT-474 [19]) [%] | normalised viability (BT-549 [20]) [%] | normalised viability (CAL-120 [21]) [%] | normalised viability (CAL-148 [22]) [%] | normalised viability (CAL-51 [23]) [%] | normalised viability (CAL-85-1 [24]) [%] | normalised viability (DU-4475 [25]) [%] | normalised viability (HCC1143 [26]) [%] | normalised viability (HCC1599 [27]) [%] | normalised viability (HCC1937 [28]) [%] | normalised viability (HDQ-P1 [29]) [%] | normalised viability (Hs578T [30]) [%] | normalised viability (MDA-MB-231 [31]) [%] | normalised viability (MDA-MB-436 [32]) [%] | normalised viability (MDA-MB-453 [33]) [%] | normalised viability (MDA-MB-468 [34]) [%] | normalised viability (MFM-223 [35]) [%] | normalised viability (SK-BR-3 [36]) [%] |
| --- | --- | --- | --- | --- | --- | --- | --- | --- | --- | --- | --- | --- | --- | --- | --- | --- | --- | --- | --- | --- | --- | --- | --- | --- | --- | --- | --- | --- | --- | --- | --- | --- | --- | --- | --- | --- | --- |
| CNC(=O)c1cc(Oc2ccc(NC(=O)Nc3ccc(Cl)c(C(F)(F)F)c3)c(F)c2)ccn1 [Regorafenib] (1 nM) | 95.7 | 99.9 | 94.1 | 94.2 | 90.1 | 104 | 102 | 98.5 | 110 | 96.4 | 100 | 99.5 | 104 | 100 | 99.9 | 115 | 114 | 97.2 | 112 | 91.4 | 102 | 89.7 | 103 | 96 | 88.9 | 121 | 100 | 131 | 83.5 | 88.5 | 84.9 | 101 | 104 | 105 | 108 | 106 | 100 |
| CO[C@H]1C[C@@H]2CC[C@@H](C)[C@@](O)(O2)C(=O)C(=O)N2CCCC[C@H]2C(=O)O[C@H]([C@H](C)C[C@@H]2CC[C@@H](OP(C)(C)=O)[C@H](OC)C2)CC(=O)[C@H](C)/C=C(\C)[C@@H](O)[C@@H](OC)C(=O)[C@H](C)C[C@H](C)/C=C/C=C/C=C/1C [Ridaforolimus] (0.1 nM) | 99.6 | 91.2 | 101 | 104 | 114 | 101 | 105 | 102 | 96.5 | 93.1 | 94.1 | 97.7 | 105 | 99.3 | 98.1 | 96.3 | 96.5 | 101 | 105 | 94 | 91 | 84.8 | 99.4 | 97.2 | 82.1 | 100 | 88 | 104 | 108 | 78.4 | 97.7 | 112 | 105 | 93 | 96.8 | 82.2 | 81.8 |
| c1ccc2c(CCNc3ccc(Nc4ccncc4)cc3)c[nH]c2c1 [Serdemetan] (1 nM) | 93.8 | 102 | 96.8 | 91 | 114 | 101 | 95.7 | 98.5 | 115 | 93.9 | 96.7 | 99.2 | 86.1 | 97.1 | 86.4 | 112 | 98.8 | 98.8 | 104 | 99.8 | 106 | 79 | 107 | 110 | 85.3 | 95.2 | 86.3 | 92.4 | 95.9 | 99.9 | 97.5 | 98.5 | 104 | 99.2 | 105 | 82.8 | 95 |
| CN(C)CCOc1ccc(/C(=C(/CCCl)c2ccccc2)c2ccccc2)cc1 [Toremifene] (1 nM) | 102 | 104 | 103 | 104 | 114 | 98.4 | 103 | 98.5 | 106 | 96.2 | 98.6 | 110 | 107 | 106 | 98.7 | 119 | 106 | 103 | 111 | 114 | 113 | 83.5 | 108 | 104 | 90.9 | 107 | 97.7 | 105 | 142 | 107 | 106 | 101 | 126 | 112 | 113 | 104 | 102 |
| CC(C)C[C@@H](C(=O)N[C@H](C(=O)OC1CCCC1)c1ccccc1)[C@H](O)C(=O)NO [Tosedostat] (1 nM) | 100 | 100 | 103 | 104 | 108 | 103 | 103 | 100 | 106 | 97.4 | 100 | 94.4 | 98.7 | 107 | 103 | 110 | 102 | 105 | 109 | 98.7 | 92.1 | 100 | 109 | 112 | 101 | 93.3 | 102 | 106 | 86.9 | 130 | 118 | 114 | 100 | 108 | 111 | 94.3 | 108 |
| COc1cc2/c(=N/c3ccc(Br)cc3F)nc[nH]c2cc1OCC1CCN(C)CC1 [Vandetanib] (1 nM) | 85.2 | 92.7 | 88.7 | 83.8 | 118 | 92.6 | 94.8 | 96.2 | 81.8 | 102 | 90.7 | 93.9 | 89.4 | 91.7 | 86.1 | 86 | 88.1 | 87 | 68.2 | 107 | 87.6 | 124 | 98.4 | 97 | 110 | 110 | 106 | 112 | 82.5 | 56.1 | 101 | 88.2 | 81.1 | 94.7 | 94.9 | 94.8 | 84 |
| COCC[n+]1c2c(n(Cc3cnccn3)c1C)C(=O)c1ccccc1C2=O [YM155] (1 nM) | 86.8 | 96 | 94.7 | 93.3 | 119 | 89.6 | 94.7 | 88.8 | 84.7 | 89.8 | 109 | 92.5 | 82.1 | 99.6 | 81.3 | 86.2 | 93.6 | 86.8 | 80.6 | 103 | 102 | 99.2 | 105 | 92.4 | 107 | 108 | 114 | 136 | 90.1 | 81.3 | 107 | 83 | 101 | 93.3 | 85.3 | 98.8 | 94.5 |
